≈ marks a conversion by molar mass, not a printed value.
Key:
[1] = test system: S. aureus UC-76; assay: Antibacterial assay (Test A), standard microtitration, MIC; format: cell-based; settings: Gram Positive Bacteria, strain UC-76; for MIC: Staphylococcus aureus, UC76
Method: (§1) The compounds of the present invention were tested against an assortment of Gram-negative and Gram-positive organisms using standard microtitration techniques (Cohen et. al., Antimicrob., 1985; 28: 766; Heifetz, et. al., Antimicrob., 1974; 6: 124).

[2] = test system: S pyogenes C203; assay: as above; format: cell-based; settings: Gram Positive Bacteria; strain C203
Method: as §1

[3] = test system: E. coli Tol C; assay: as above; format: cell-based; settings: for MIC: Escherichia coli, read-out: MIC E. coli Tol C; for MIC E. coli Tol C: Gram Negative Bacteria, strain Tol C
Method: as §1

[4] = test system: E. faecalis MGH-2; assay: as above; format: cell-based; settings: Gram Positive Bacteria, strain MGH-2; for MIC: Enterococcus faecalis, MGH2
Method: as §1

[5] = test system: H. influenzae HI3542; assay: as above; format: cell-based; settings: Gram Negative Bacteria, strain HI3542; for MIC: Haemophilus influenzae
Method: as §1

[6] = test system: M. catarrhalis BC3534; assay: Antibacterial assay (Test A), standard microtitration, MIC; format: cell-based; settings: strain BC3534; for MIC: Moraxella catarrhalis, BC3534, Gram Negative Bacteria; for MIC M. catarrhalis BC3534: Gram Negative Bacteria
Method: as §1

CC(=O)NC[C@H]1CN(c2ccc3c(c2)OCCc2cnoc2-3)C(=O)O1 [Example 38, (S)—N-[3-(4,5-Dihydro-1,6-dioxa-2-aza-benzo[e]azulen-8-yl)-2-oxo-oxazolidin-5-ylmethyl]-acetamide]
MIC [1]: 1 µg/mL (≈ 2.91 µM) | MIC [2]: 0.5 µg/mL (≈ 1.46 µM) | MIC [3]: > 64 µg/mL | MIC [4]: 1 µg/mL (≈ 2.91 µM) | MIC [5]: 4 µg/mL (≈ 11.7 µM)

CC(=O)NC[C@H]1CN(c2ccc3c(c2)CCS(=O)(=O)c2cnc(N)nc2-3)C(=O)O1
melting point: 211 to 213 °C (dec.)

CC(=O)NC[C@H]1CN(c2ccc3c(c2)CCSc2cnc(N)nc2-3)C(=O)O1
melting point: 190 to 191 °C (dec.)

CC(=O)NC[C@H]1CN(c2ccc3c(c2)CCSC(=CN(C)C)C3=O)C(=O)O1
melting point: 221 to 222 °C

CC(=O)NC[C@H]1CN(c2ccc3c(c2)OCCc2cn(C)nc2-3)C(=O)O1 [Example 39, (S)—N-[3-(2-Methyl4,5-dihydro-2H-6-oxa-1,2-diaza-benzo[e]azulen-8-yl)-2-oxo-oxazolidin-5-ylmethyl]-acetamide]
MIC [1]: > 64 µg/mL | MIC [2]: 32 µg/mL (≈ 89.8 µM) | MIC [3]: > 64 µg/mL | MIC [6]: > 64 µg/mL | MIC [4]: 32 µg/mL (≈ 89.8 µM) | MIC [5]: > 64 µg/mL

CC(=O)NC[C@H]1CN(c2ccc3c(c2)CCSCC3=O)C(=O)O1
melting point: 232 to 233 °C

CC(=O)NC[C@H]1CN(c2ccc3c(c2)CCSc2cn[nH]c2-3)C(=O)O1
melting point: 186 to 187 °C

(S)—N-[3-(2-Ethyl-4,5-dihydro-2H-6-oxa-1,2-diaza-benzo[e]azulen-8-yl)-2-oxo-oxazolidin-5-ylmethyl]-acetamide and (S)—N-[3-(1-Ethyl-4,5-dihydro-1H-6-oxa-1,2-diaza-benzo[e]azulen-8-yl)-2-oxo-oxazolidin-5-ylmethyl]-acetamide [Example 40]
MIC S. aureus UC-76 [1]: >64 µg/mL | MIC S pyogenes C203 [2]: 32 µg/mL | MIC E. coli Tol C [3]: >64 µg/mL | MIC M. catarrhalis BC3534 [6]: >64 µg/mL | MIC E. faecalis MGH-2 [4]: >64 µg/mL | MIC H. influenzae HI3542 [5]: >64 µg/mL

CC(=O)NC[C@H]1CN(c2ccc3c(c2)OCCc2cn[nH]c2-3)C(=O)O1 [Example 37, (S)—N-[3-(4,5-Dihydro-1H-6-oxa-1,2-diaza-benzo[e]azulen-8-yl)-2-oxo-oxazolidin-5-ylmethyl]-acetamide]
MIC [1]: 2 µg/mL (≈ 5.84 µM) | MIC [2]: 0.5 µg/mL (≈ 1.46 µM) | MIC [3]: > 64 µg/mL | MIC M. catarrhalis BC3534 [6]: 4 µg/mL (≈ 11.7 µM) | MIC [4]: 2 µg/mL (≈ 5.84 µM) | MIC [5]: 8 µg/mL (≈ 23.4 µM)

CC(=O)NC[C@H]1CN(c2ccc3c(c2)OCCc2c(-c4ccncc4)n[nH]c2-3)C(=O)O1 [Example 22, (S)—N-[2-Oxo-3-(3-pyridin-4-yl-4,5-dihydro-1H-6-oxa-1,2-diaza-benzo[e]azulen-8-yl)-oxazolidin-5-ylmethyl]-acetamide]
MIC [1]: 4 µg/mL (≈ 9.54 µM) | MIC [2]: 1 µg/mL (≈ 2.38 µM) | MIC [3]: > 64 µg/mL | MIC [6]: > 64 µg/mL | MIC [4]: 4 µg/mL (≈ 9.54 µM) | MIC [5]: 4 µg/mL (≈ 9.54 µM)

CC(=O)NC[C@H]1CN(c2ccc3c(c2)CCS(=O)(=O)C(=CN(C)C)C3=O)C(=O)O1
melting point: 261 to 263 °C

CC(=O)NC[C@H]1CN(c2ccc3c(c2)CCC(N)C(=O)N3)C(=O)O1 (stereo partly drawn)
melting point: > 160 °C (dec.)

CC(=O)NC[C@H]1CN(c2ccc3c(c2)CCS(=O)(=O)c2cnoc2-3)C(=O)O1
melting point: 211 to 212 °C

CC(=O)NC[C@H]1CN(c2ccc3c(c2)OCCc2c(-c4ccc(F)cc4)n[nH]c2-3)C(=O)O1
MIC [1]: 1 µg/mL (≈ 2.29 µM) | MIC [2]: 0.5 µg/mL (≈ 1.15 µM) | MIC [4]: 1 µg/mL (≈ 2.29 µM)

CC(=O)NC[C@H]1CN(c2ccc3c(c2)CCS(=O)(=O)c2cn[nH]c2-3)C(=O)O1
melting point: 292 to 293 °C

CC(=O)NC[C@H]1CN(c2ccc3c(c2)CCNC(=O)N3)C(=O)O1
melting point: 177 to 178 °C

(S)—N-[3-(2-Benzyl-4,5-dihydro-2H-6-oxa-1,2-diaza-benzo[e]azulen-8-yl)-2-oxo-oxazolidin-5-ylmethyl]-acetamide and (S)—N-[3-(1-Benzyl-4,5-dihydro-1H-6-oxa-1,2-diaza-benzo[e]azulen-8-yl)-2-oxo-oxazolidin-5-ylmethyl]-acetamide [Example 41]
MIC S. aureus UC-76 [1]: >64 µg/mL | MIC S pyogenes C203 [2]: 32 µg/mL | MIC E. coli Tol C [3]: >64 µg/mL | MIC M. catarrhalis BC3534 [6]: >64 µg/mL | MIC E. faecalis MGH-2 [4]: >64 µg/mL | MIC H. influenzae HI3542 [5]: >64 µg/mL

CC(=O)NC[C@H]1CN(c2ccc3c(c2)OCCc2cn[nH]c2-3)C(=O)O1 [drawing 124]
MIC E. coli Tol C [3]: >64 µg/mL | MIC M. catarrhalis BC3534 [6]: 16 µg/mL (≈ 46.7 µM) | MIC H. influenzae HI3542 [5]: 8 µg/mL (≈ 23.4 µM)

(S)—N-[2-Oxo-3-(2-phenethyl-4,5-dihydro-2H-6-oxa-1,2-diaza-benzo[e]azulen-8-yl)-oxazolidin-5-ylmethyl]-acetamide and (S)—N-[2-Oxo-3-(1-phenethyl-4,5-dihydro-1H-6-oxa-1,2-diaza-benzo[e]azulen-8-yl)-oxazolidin-5-ylmethyl]-acetamide [Example 42]
MIC S. aureus UC-76 [1]: 32 µg/mL | MIC S pyogenes C203 [2]: 32 µg/mL | MIC E. coli Tol C [3]: >64 µg/mL | MIC M. catarrhalis BC3534 [6]: >64 µg/mL | MIC E. faecalis MGH-2 [4]: 32 µg/mL | MIC H. influenzae HI3542 [5]: >64 µg/mL

Source: US20050277630A1, “Antibacterial agents” (priority 2003, published 2005)
